What all share (format): in vivo
Test [1] has as its system slender amaranth (Amaranthus viridis L.). Put plainly: Test Example 2: herbicidal effect by soil application to upland field. The note with it: soil surface spray, upland field soil, 1,000 g active ingredient per hectare, 21st day after application. The essentials: (§1)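 Pre-emergence soil test: seeds sown in pots of field soil, then wettable-powder formulation sprayed on soil surface at 1,000 g active ingredient per hectare in 1,000 L water per hectare. Plants grown in greenhouse; herbicidal effect scored on a standard scale at day 21.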

The subject of test [2] is barnyardgrass (Echinochloa crus-galli (L.) P. Beauv. var. crus-galli). The description is as above. The note with it: soil surface spray, upland field soil, 1,000 g active ingredient per hectare, 21st day after application. In a few lines: as §1
For test [3], the system named is green foxtail (Setaria viridis (L.) P. Beauv.). The test is described as above. As to conditions: soil surface spray, upland field soil, 1,000 g active ingredient per hectare, 21st day after application. In a few lines: as §1
For test [4], the system named is velvetleaf (Abutilon theophrasti medicus). The description is as above. As to conditions: soil surface spray, upland field soil, 1,000 g active ingredient per hectare, 21st day after application. In a few lines: as §1
Test [5] deals with slender amaranth (Amaranthus viridis L.). The test is described as follows: Test Example 3: herbicidal effect by application to upland field (foliage treatment). As to conditions: 14th day after application; for herbicidal effect, Slender Amaranth: foliage treatment, 1,000 g active ingredient per 1 hectare, greenhouse; for herbicidal effect (index), Slender Amaranth: foliage treatment, plants grown two weeks, 1,000 g active ingredient per hectare. In a few lines: (§2)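 Seeds went into pots of field soil and grew under glass for two weeks. The whole plant was then sprayed from above with diluted wettable powder delivering 1,000 g/ha of active ingredient. Plants stayed in the greenhouse, and injury was graded against a standard 14 days after spraying.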

Test [6] relates to barnyardgrass (Echinochloa crus-galli (L.) P. Beauv. var. crus-galli). The description is as above. As to conditions: 14th day after application; for herbicidal effect, Barnyardgrass: foliage treatment, 1,000 g active ingredient per 1 hectare, greenhouse; for herbicidal effect (index), Barnyardgrass: foliage treatment, plants grown two weeks, 1,000 g active ingredient per hectare. In a few lines: as §2

Test [7] concerns green foxtail (Setaria viridis (L.) P. Beauv.). Described as above. As to conditions: 14th day after application; for herbicidal effect, Green Foxtail: foliage treatment, 1,000 g active ingredient per 1 hectare, greenhouse; for herbicidal effect (index), Green Foxtail: foliage treatment, plants grown two weeks, 1,000 g active ingredient per hectare. In a few lines: as §2
Test [8] deals with velvetleaf (Abutilon theophrasti medicus). The description is as above. The note with it: 14th day after application; for herbicidal effect, Velvetleaf: foliage treatment, 1,000 g active ingredient per 1 hectare, greenhouse; for herbicidal effect (index), Velvetleaf: foliage treatment, plants grown two weeks, 1,000 g active ingredient per hectare. In a few lines:
as §2

For test [9], the system named is early watergrass (Echinochloa oryzicola Vasing). The test is described as follows: Test Example 1: herbicidal effect by soil application to paddy field. As to conditions: paddy field soil application; active ingredient 1,000 g per 1 hectare; wettable powder added dropwise to water surface the day after sowing; examined on the 21st day after application. The essentials:
(§3)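 Plants were sown in flooded (3 cm) paddy soil and evaluated for herbicidal effect 21 days after soil application in a greenhouse.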

Test [10] has as its system heartshape false pickerelweed (Monochoria vaginalis (Burm.f.) C.Presl). The description is as above. As to conditions: paddy field soil application; active ingredient 1,000 g per 1 hectare; wettable powder added dropwise to water surface the day after sowing; examined on the 21st day after application. In a few lines: as §3
Test [11] has as its system Japanese bulrush (Scirpus juncoides Roxb.). The description is as above. The note with it: paddy field soil application; active ingredient 1,000 g per 1 hectare; wettable powder added dropwise to water surface the day after sowing; examined on the 21st day after application. The essentials:
as §3

This note sets out measurements from patent US8076487B2, “Pyridone derivative and herbicide” (Kumiai Chemical Industry Co., Ltd., priority 2006, dated 2011).

Structures are written as SMILES.

As for `CCOCCn1c(C(F)(F)F)ccc(C(=O)c2cnn(C)c2OC(=O)c2ccccc2)c1=O` [IV-35], in [1], the “herbicidal effect (index), Slender Amaranth” value is 5 (90% or more of herbicidal effect and crop phytotoxicity). Besides, in test [2], the “herbicidal effect (index), Barnyardgrass” value was 5 (90% or more of herbicidal effect and crop phytotoxicity). Besides, the “herbicidal effect (index), Green Foxtail” value in test [3] was 5 (90% or more of herbicidal effect and crop phytotoxicity). In test [4], the “herbicidal effect (index), Velvetleaf” value was 5 (90% or more of herbicidal effect and crop phytotoxicity). Besides, the “herbicidal effect, Slender Amaranth” value in test [5] is 5 (90% or more of herbicidal effect and crop phytotoxicity). The “herbicidal effect, Barnyardgrass” value in test [6] was 5 (90% or more of herbicidal effect and crop phytotoxicity). In addition, the “herbicidal effect, Green Foxtail” value in [7] is 5 (90% or more of herbicidal effect and crop phytotoxicity). Besides, the “herbicidal effect, Velvetleaf” value in test [8] is 5 (90% or more of herbicidal effect and crop phytotoxicity). Moreover, the “herbicidal effect, Echinochloa oryzicola Vasing” value in test [9] is 5 (90% or more of herbicidal effect and crop phytotoxicity). The “herbicidal effect, Monochoria vaginalis (Burm. f.) C. Presl” value (“herbicidal effect, Monochoria vaginalis” for short) in test [10] is 5 (90% or more of herbicidal effect and crop phytotoxicity). Further, the “herbicidal effect, Scirpus juncoides Roxb.” value in test [11] is 5 (90% or more of herbicidal effect and crop phytotoxicity).
Regarding `O=C1CCCC(O)=C1C(=O)c1ccc(C(F)(F)F)n(-c2ccc(F)c(F)c2)c1=O` [I-105], the “herbicidal effect (index), Slender Amaranth” value is 5 (90% or more of herbicidal effect and crop phytotoxicity) in test [1]; 5 (90% or more of herbicidal effect and crop phytotoxicity) in test [5]. Also, the “herbicidal effect (index), Barnyardgrass” value in [2] was 5 (90% or more of herbicidal effect and crop phytotoxicity); in test [6] it was 5 (90% or more of herbicidal effect and crop phytotoxicity). For the same compound, the “herbicidal effect (index), Green Foxtail” value is 5 (90% or more of herbicidal effect and crop phytotoxicity) in test [3]; 5 (90% or more of herbicidal effect and crop phytotoxicity) in test [7]. Moreover, the “herbicidal effect (index), Velvetleaf” value in [4] was 5 (90% or more of herbicidal effect and crop phytotoxicity); in test [8] it was 5 (90% or more of herbicidal effect and crop phytotoxicity). Also, the “herbicidal effect, Echinochloa oryzicola Vasing” value in [9] was 5 (90% or more of herbicidal effect and crop phytotoxicity). Moreover, the “herbicidal effect, Monochoria vaginalis” value in test [10] was 5 (90% or more of herbicidal effect and crop phytotoxicity). The “herbicidal effect, Scirpus juncoides Roxb.” value in test [11] is 5 (90% or more of herbicidal effect and crop phytotoxicity).
As to `O=C1CCCC(O)=C1C(=O)c1ccc(C(F)(F)F)n(-c2cc(F)ccc2F)c1=O` [I-103], the “herbicidal effect (index), Slender Amaranth” value in test [1] is 5 (90% or more of herbicidal effect and crop phytotoxicity); in test [5] it was 5 (90% or more of herbicidal effect and crop phytotoxicity). Besides, the “herbicidal effect (index), Barnyardgrass” value in test [2] was 5 (90% or more of herbicidal effect and crop phytotoxicity); in test [6] it was 5 (90% or more of herbicidal effect and crop phytotoxicity). The “herbicidal effect (index), Green Foxtail” value was 5 (90% or more of herbicidal effect and crop phytotoxicity) in test [3]; 5 (90% or more of herbicidal effect and crop phytotoxicity) in test [7]. Besides, the “herbicidal effect (index), Velvetleaf” value in [4] was 5 (90% or more of herbicidal effect and crop phytotoxicity); in [8] it was 5 (90% or more of herbicidal effect and crop phytotoxicity). Further, in [9], the “herbicidal effect, Echinochloa oryzicola Vasing” value was 5 (90% or more of herbicidal effect and crop phytotoxicity). In addition, the “herbicidal effect, Monochoria vaginalis” value in [10] is 5 (90% or more of herbicidal effect and crop phytotoxicity). In addition, the “herbicidal effect, Scirpus juncoides Roxb.” value in test [11] was 5 (90% or more of herbicidal effect and crop phytotoxicity).
For `CCCS(=O)(=O)Oc1c(C(=O)c2ccc(C(F)(F)F)n(-c3ccc(F)c(COC)c3)c2=O)cnn1C(C)C` [IV-96], the “herbicidal effect (index), Slender Amaranth” value in [1] was 4 (70 to less than 90% of herbicidal effect and crop phytotoxicity). In [2], the “herbicidal effect (index), Barnyardgrass” value is 4 (70 to less than 90% of herbicidal effect and crop phytotoxicity). In addition, the “herbicidal effect (index), Green Foxtail” value in test [3] is 3 (50 to less than 70% of herbicidal effect and crop phytotoxicity). The “herbicidal effect (index), Velvetleaf” value in test [4] was 5 (90% or more of herbicidal effect and crop phytotoxicity). The “herbicidal effect, Slender Amaranth” value in test [5] was 4 (70 to less than 90% of herbicidal effect and crop phytotoxicity). For the same compound, the “herbicidal effect, Barnyardgrass” value in [6] is 3 (50 to less than 70% of herbicidal effect and crop phytotoxicity). Further, the “herbicidal effect, Green Foxtail” value in test [7] was 5 (90% or more of herbicidal effect and crop phytotoxicity). Also, in test [8], the “herbicidal effect, Velvetleaf” value is 5 (90% or more of herbicidal effect and crop phytotoxicity). Also, the “herbicidal effect, Echinochloa oryzicola Vasing” value in test [9] is 5 (90% or more of herbicidal effect and crop phytotoxicity). Further, the “herbicidal effect, Monochoria vaginalis” value in [10] is 5 (90% or more of herbicidal effect and crop phytotoxicity). Moreover, the “herbicidal effect, Scirpus juncoides Roxb.” value in test [11] was 4 (70 to less than 90% of herbicidal effect and crop phytotoxicity).
Consider `CCCS(=O)(=O)Oc1c(C(=O)c2ccc(C(F)(F)F)n(-c3ccc4c(c3)OCO4)c2=O)cnn1CC` [IV-99], for which the “herbicidal effect (index), Slender Amaranth” value in test [1] is 4 (70 to less than 90% of herbicidal effect and crop phytotoxicity). The “herbicidal effect (index), Barnyardgrass” value in test [2] is 5 (90% or more of herbicidal effect and crop phytotoxicity). Also, in [3], the “herbicidal effect (index), Green Foxtail” value is 3 (50 to less than 70% of herbicidal effect and crop phytotoxicity). In addition, the “herbicidal effect (index), Velvetleaf” value in [4] is 4 (70 to less than 90% of herbicidal effect and crop phytotoxicity). Moreover, in [5], the “herbicidal effect, Slender Amaranth” value is 5 (90% or more of herbicidal effect and crop phytotoxicity). Further, the “herbicidal effect, Barnyardgrass” value in test [6] was 5 (90% or more of herbicidal effect and crop phytotoxicity). Also, the “herbicidal effect, Green Foxtail” value in [7] is 5 (90% or more of herbicidal effect and crop phytotoxicity). In addition, in test [8], the “herbicidal effect, Velvetleaf” value was 5 (90% or more of herbicidal effect and crop phytotoxicity). Moreover, the “herbicidal effect, Echinochloa oryzicola Vasing” value in test [9] is 5 (90% or more of herbicidal effect and crop phytotoxicity). The “herbicidal effect, Monochoria vaginalis” value in [10] was 5 (90% or more of herbicidal effect and crop phytotoxicity). For the same compound, the “herbicidal effect, Scirpus juncoides Roxb.” value in test [11] is 5 (90% or more of herbicidal effect and crop phytotoxicity).
